Reference: patent publication US8785460B2, “Tricyclic compounds and use thereof” (Takeda Pharmaceutical Company Limited, priority 2008, dated 2014)
Counter-ions that a name gives are not always drawn.

What follows are molecules tested against T1, human CRF1 receptor (Homo sapiens, UniProt P34998) (assay: Measurement of CRF Binding Inhibitory Rate (receptor binding experiment with 125I-CRF)). Conditions: human CRF1 receptor expressing CHO cellular membrane fraction, 50 pM 125I-CRF, room temperature 1.5 hr, 0.05 nM to 10 μM of compound; read-out: IC50 values (CRF binding inhibition).
T1 construct: expressed in transfected cells; host or cells: CHO cells (membrane fraction)
T1 sequence (P34998 24-415): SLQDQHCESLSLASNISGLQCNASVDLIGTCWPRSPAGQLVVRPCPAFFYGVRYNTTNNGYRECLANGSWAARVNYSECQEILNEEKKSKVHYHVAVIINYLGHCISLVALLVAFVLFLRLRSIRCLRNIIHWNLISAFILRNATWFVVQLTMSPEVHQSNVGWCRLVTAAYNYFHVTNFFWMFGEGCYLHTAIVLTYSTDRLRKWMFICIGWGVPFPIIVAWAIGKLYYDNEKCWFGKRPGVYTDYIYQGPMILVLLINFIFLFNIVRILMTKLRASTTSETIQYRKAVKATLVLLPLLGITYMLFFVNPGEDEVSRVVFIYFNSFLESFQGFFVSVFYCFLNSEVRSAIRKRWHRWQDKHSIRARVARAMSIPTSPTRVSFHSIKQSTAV
Method: Measurement of CRF Binding Inhibitory Rate
A receptor binding experiment was carried out using a human CRF1 receptor expressing CHO cellular membrane fraction and ovine CRF, [^125I]-tyr^0(^125I-CRF). 1000 nM of a test compound was incubated with 1 μg of human CREF receptor expressing CHO cellular membrane fraction and 50 pM of ^125I-CRF in a binding assay buffer (50 mM Tris-HCl, 5 mM EDTA, 10 mM MgCl2, 0.05% CHAPS, 0.1% BSA, 0.5 mM PMSF, 0.1 μg/mL pepstatin, 20 μg/mL leupeptin, pH 7.5). In addition, for measuring nonspecific binding (NSB), 0.1 μM unlabelled human Urocortin was incubated with 5 μg of human CRE receptor expressing CHO cellular membrane fraction and 50 pM of ^125I-CRF in a binding assay buffer. After a binding reaction was carried out at room temperature for 1.5 hr, the membrane was entrapped on a glass filter (UniFilter plate GF-C/Perkin Elmer) by suction filtration using a cell harvester (Perkin Elmer), and washed with ice-cooled 50 mM Tris-HCl (pH 7.5). After drying the glass filter, a liquid scintillation cocktail (Microscinti 0, Perkin Elmer) was added, and the radioactivity of ^125I-CRF remaining on a glass filter was measured using Topcount (Perkin Elmer).
(TB−SB)/(TB−NSB)×100 (SB: radioactivity when a compound is added, TB: maximum binding radioactivity, NSB: nonspecific binding radioactivity) were calculated to obtain binding inhibitory rates under the range of the presence from 0.05 nM to 10 μM of each compound. The IC50 values were calculated by using GraphPad Prism software.
With `CCN(CC)c1cccc2nc3n(c12)CCCOC3c1ccc(Cl)cc1Cl` (single isomer, unassigned) [Example 485, 1-(2,4-Dichlorophenyl)-N,N-diethyl-4,5-dihydro-1H,3H-[1,4]oxazepino[4,3-a]benzimidazol-7-amine] the IC50 was less than 1000 nM. `CCC(OC(C)=O)c1ccc(Cl)c2nc3n(c12)CCCN3c1ccc(Cl)cc1Cl` (single isomer, unassigned; (-)) [Example 239, (−)-1-[9-Chloro-1-(2,4-dichlorophenyl)-1,2,3,4-tetrahydropyrimido[1,2-a]benzimidazol-6-yl]propyl acetate] was tested, and the IC50 was less than 1000 nM. Work on `CCC(OC(C)=O)c1ccc(Cl)c2nc3n(c12)CCCN3c1ccc(OC)nc1C` (single isomer, unassigned; (-)) [Example 266, (−)-1-[9-Chloro-1-(6-methoxy-2-methylpyridin-3-yl)-1,2,3,4-tetrahydropyrimido[1,2-a]benzimidazol-6-yl]propyl acetate] yielded an IC50 of less than 1000 nM. For `CCC(CC)c1ccc(Cl)c2nc3n(c12)CCN3c1c(C)cc(Cl)cc1OC` [Example 1, 8-Chloro-1-(4-chloro-2-methoxy-6-methylphenyl)-5-(1-ethylpropyl)-2,3-dihydro-1H-imidazo[1,2-a]benzimidazole], the IC50 was less than 1000 nM. `CCC(CC)c1ccc(Cl)c2nc3n(c12)CC(=O)N3c1c(C)cc(Cl)cc1OC` [Example 2, 8-Chloro-1-(4-chloro-2-methoxy-6-methylphenyl)-5-(1-ethylpropyl)-1H-imidazo[1,2-a]benzimidazol-2(3H)-one] was tested, and the IC50 was less than 1000 nM. `CCC(CC)c1ccc(Cl)c2nc3n(c12)CCN3c1ccc(Cl)cc1C=O` [Example 6, 5-Chloro-2-[8-chloro-5-(1-ethylpropyl)-2,3-dihydro-1H-imidazo[1,2-a]benzimidazol-1-yl]benzaldehyde] was tested, and the IC50 was less than 1000 nM. Work on `CCC(CC)c1ccc(Cl)c2nc3n(c12)CCN3c1ccc(Cl)cc1CN(C)C` [Example 8, 1-{5-Chloro-2-[8-chloro-5-(1-ethylpropyl)-2,3-dihydro-1H-imidazo[1,2-a]benzimidazol-1-yl]phenyl}-N,N-dimethylmethanamine] yielded an IC50 of less than 1000 nM. `CCC(CC)c1ccc(Cl)c2nc3n(c12)CC(=O)N3c1cnc(N(C)C)cc1C` [Example 9, 8-Chloro-1-[6-(dimethylamino)-4-methylpyridin-3-yl]-5-(1-ethylpropyl)-1H-imidazo[1,2-a]benzimidazol-2(3H)-one] showed an IC50 of less than 1000 nM. `CCC(CC)c1ccc(Cl)c2nc3n(-c4c(C)cc(Cl)cc4OC)c(Cl)cn3c12` [Example 10, 2,8-Dichloro-1-(4-chloro-2-methoxy-6-methylphenyl)-5-(1-ethylpropyl)-1H-imidazo[1,2-a]benzimidazole] showed an IC50 of less than 1000 nM. For `CCC(CC)c1ccc(Cl)c2nc3n(c12)CCN3c1ccccc1Cl` [Example 13, 8-Chloro-1-(2-chlorophenyl)-5-(1-ethylpropyl)-2,3-dihydro-1H-imidazo[1,2-a]benzimidazole], the IC50 was less than 1000 nM. For `CCC(CC)c1ccc(Cl)c2nc3n(c12)CCN3c1ccc(C=O)cc1Cl` [Example 16, 3-Chloro-4-[8-chloro-5-(1-ethylpropyl)-2,3-dihydro-1H-imidazo[1,2-a]benzimidazol-1-yl]benzaldehyde], the IC50 was less than 1000 nM. `CCC(CC)c1ccc(Cl)c2nc3n(c12)CCN3c1ccc(Cl)cc1C#N` [Example 18, 5-Chloro-2-[8-chloro-5-(1-ethylpropyl)-2,3-dihydro-1H-imidazo[1,2-a]benzimidazol-1-yl]benzonitrile] gave an IC50 of less than 1000 nM. Molecule `CCC(CC)c1ccc(Cl)c2nc3n(c12)CCCCN3c1c(C)nn(C)c1C` [Example 24, 10-Chloro-7-(1-ethylpropyl)-1-(1,3,5-trimethyl-1H-pyrazol-4-yl)-2,3,4,5-tetrahydro-1H-[1,3]diazepino[1,2-a]benzimidazole] has an IC50 of less than 1000 nM. `CCC(CC)c1ccc(Cl)c2nc3n(c12)CCCCN3c1ccc(C)cc1` [Example 32, 10-Chloro-7-(1-ethylpropyl)-1-(4-methylphenyl)-2,3,4,5-tetrahydro-1H-[1,3]diazepino[1,2-a]benzimidazole] showed an IC50 of less than 1000 nM. For `CCC(CC)c1ccc(Cl)c2nc3n(c12)CCCCN3c1ccc(C)cc1CO` [Example 33, {2-[10-Chloro-7-(1-ethylpropyl)-2,3,4,5-tetrahydro-1H-[1,3]diazepino[1,2-a]benzimidazol-1-yl]-5-methylphenyl}methanol], the IC50 was less than 1000 nM. With `CCC(CC)c1ccc(Cl)c2nc3n(c12)CCCCN3c1ccc(C)cc1C=O` [Example 34, 2-[10-Chloro-7-(1-ethylpropyl)-2,3,4,5-tetrahydro-1H-[1,3]diazepino[1,2-a]benzimidazol-1-yl]-5-methylbenzaldehyde] the IC50 was less than 1000 nM. For `CCC(CC)c1ccc(Cl)c2nc3n(c12)CCCCN3c1ccc(C)cc1CN(C)C` [Example 35, 1-{2-[10-Chloro-7-(1-ethylpropyl)-2,3,4,5-tetrahydro-1H-[1,3]diazepino[1,2-a]benzimidazol-1-yl]-5-methylphenyl}-N,N-dimethylmethanamine hydrochloride], the IC50 was less than 1000 nM. Work on `CCC(CC)c1ccc(Cl)c2nc3n(c12)CCCCN3c1ccc(OC(F)(F)F)cc1` [Example 40, 10-Chloro-7-(1-ethylpropyl)-1-[4-(trifluoromethoxy)phenyl]-2,3,4,5-tetrahydro-1H-[1,3]diazepino[1,2-a]benzimidazole] yielded an IC50 of less than 1000 nM. Work on `CCC(CC)c1ccc(Cl)c2nc3n(c12)CCCCN3c1ccc(OC(F)(F)F)cc1C=O` [Example 41, 2-[10-Chloro-7-(1-ethylpropyl)-2,3,4,5-tetrahydro-1H-[1,3]diazepino[1,2-a]benzimidazol-1-yl]-5-(trifluoromethoxy)benzaldehyde] yielded an IC50 of less than 1000 nM. `CCC(CC)c1ccc(Cl)c2nc3n(c12)CCCCN3c1ccc(OC(F)(F)F)cc1CN(C)C` [Example 42, 1-[2-[10-Chloro-7-(1-ethylpropyl)-2,3,4,5-tetrahydro-1H-[1,3]diazepino[1,2-a]benzimidazol-1-yl]-5-(trifluoromethoxy)phenyl]-N,N-dimethylmethanamine hydrochloride] showed an IC50 of less than 1000 nM. In the case of `CCC(CC)c1ccc(Cl)c2nc3n(c12)CCCCN3c1ccc(Br)cc1C` [Example 43, 1-(4-Bromo-2-methylphenyl)-10-chloro-7-(1-ethylpropyl)-2,3,4,5-tetrahydro-1H-[1,3]diazepino[1,2-a]benzimidazole], the IC50 is reported as less than 1000 nM. Molecule `CCC(CC)c1ccc(Cl)c2nc3n(c12)CCCCN3c1cccnc1OC` [Example 55, 10-Chloro-7-(1-ethylpropyl)-1-(2-methoxypyridin-3-yl)-2,3,4,5-tetrahydro-1H-[1,3]diazepino[1,2-a]benzimidazole] has an IC50 of less than 1000 nM. For `CCC(CC)c1ccc(Cl)c2nc3n(c12)CCCCN3c1ncc(N)cc1C` [Example 65, 6-[10-Chloro-7-(1-ethylpropyl)-2,3,4,5-tetrahydro-1H-[1,3]diazepino[1,2-a]benzimidazol-1-yl]-5-methylpyridin-3-amine], the IC50 was less than 1000 nM. `CCC(=O)c1cccc2nc3n(c12)CCCCN3c1ccc(Cl)cc1Cl` [Example 69, 1-[1-(2,4-Dichlorophenyl)-2,3,4,5-tetrahydro-1H-[1,3]diazepino[1,2-a]benzimidazol-7-yl]propan-1-one] showed an IC50 of less than 1000 nM. Work on `CCC(OCCOC)c1cccc2nc3n(c12)CCCN3c1ccc(Cl)cc1Cl` (centres unmarked) [Example 94, 1-(2,4-Dichlorophenyl)-6-[1-(2-methoxyethoxy)propyl]-1,2,3,4-tetrahydropyrimido[1,2-a]benzimidazole] yielded an IC50 of less than 1000 nM. `CCN(CC)c1ccc(Cl)c2nc3n(c12)CCCCN3c1ccc(Cl)cc1Cl` [Example 98, 10-Chloro-1-(2,4-dichlorophenyl)-N,N-diethyl-2,3,4,5-tetrahydro-1H-[1,3]diazepino[1,2-a]benzimidazol-7-amine] showed an IC50 of less than 1000 nM. `O=[N+]([O-])c1ccc(Cl)c2nc3n(c12)CCCN3c1ccc(Cl)cc1Cl` [Example 99, 9-Chloro-1-(2,4-dichlorophenyl)-6-nitro-1,2,3,4-tetrahydropyrimido[1,2-a]benzimidazole] gave an IC50 of less than 1000 nM. For `CC/C(=N\OC)c1ccc(Cl)c2nc3n(c12)CCCN3c1ccc(Cl)cc1Cl` [Example 121, (1E)-1-[9-Chloro-1-(2,4-dichlorophenyl)-1,2,3,4-tetrahydropyrimido[1,2-a]benzimidazol-6-yl]propan-1-one O-methyloxime], the IC50 was less than 1000 nM. `CCO/N=C(\CC)c1ccc(Cl)c2nc3n(c12)CCCN3c1ccc(Cl)cc1Cl` [Example 123, (1E)-1-[9-Chloro-1-(2,4-dichlorophenyl)-1,2,3,4-tetrahydropyrimido[1,2-a]benzimidazol-6-yl]propan-1-one O-ethyloxime] gave an IC50 of less than 1000 nM.
